The results in this text go back to US11021444B2, “Antiviral compounds” (priority 2013, dated 2021).

A short description of data set [1]: Cytotoxicity Determination (CCK-8, without addition of virus). The class given is cell-based. Particulars: human, 50% cytotoxicity concentration (CC50). The essentials:
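HEp-2 cells were seeded at 1,500 cells/well one day before compound addition. Compounds were tested without virus in duplicate over 7 points from 100 μM in 1/2 steps, with 1% final DMSO, 5 days at 37 °C, 5% CO2. Viability was read by CCK-8 after 3-4 hours.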

Data set [2] concerns Respiratory Syncytial Virus (RSV) long strain. Kind of data set: microbe, parasite or virus in culture. The class given is cell-based. The following applies: human respiratory syncytial virus, Tables A and B list compounds by EC50 band. The essentials: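 HEp-2 cells infected with 100 TCID50 virus per well, compounds in duplicate, 9-point 1/3 dilutions from 100 μM or 1 μM, 1% DMSO. After 5 days at 37 °C, cell viability (CPE protection) read by CCK-8 absorbance at 450 nm, 630 nm background.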

Data set [3] addresses recombinant RSV complex (Human respiratory syncytial virus A, UniProt P28887). As to the kind of experiment: RSV Polymerase Inhibition Assay. The data set is classed as biochemical. The essentials:
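10 nM recombinant RSV polymerase complex in Tris-HCl pH 7.5, 6 mM MgCl2 with RNA oligonucleotide template and radionucleotides, incubated 2 h at 30 °C with increasing inhibitor concentrations. Reaction stopped with EDTA; radiolabeled RNA product counted by scintillation.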

[4] abbreviates: HEp-2, 120 h, read-out: 50% effective concentration (EC50), HEp-2 cells infected with RSV long strain, 5 days, CCK-8 readout.
[5] abbreviates: 120 h, read-out: 50% effective concentration (EC50), HEp-2 cells infected with RSV long strain, 5 days, CCK-8 readout.

Molecules are shown by their SMILES. Read-outs that look alike come from different tables or passages of the source.

Sequence of recombinant RSV complex (P28887 whole entry): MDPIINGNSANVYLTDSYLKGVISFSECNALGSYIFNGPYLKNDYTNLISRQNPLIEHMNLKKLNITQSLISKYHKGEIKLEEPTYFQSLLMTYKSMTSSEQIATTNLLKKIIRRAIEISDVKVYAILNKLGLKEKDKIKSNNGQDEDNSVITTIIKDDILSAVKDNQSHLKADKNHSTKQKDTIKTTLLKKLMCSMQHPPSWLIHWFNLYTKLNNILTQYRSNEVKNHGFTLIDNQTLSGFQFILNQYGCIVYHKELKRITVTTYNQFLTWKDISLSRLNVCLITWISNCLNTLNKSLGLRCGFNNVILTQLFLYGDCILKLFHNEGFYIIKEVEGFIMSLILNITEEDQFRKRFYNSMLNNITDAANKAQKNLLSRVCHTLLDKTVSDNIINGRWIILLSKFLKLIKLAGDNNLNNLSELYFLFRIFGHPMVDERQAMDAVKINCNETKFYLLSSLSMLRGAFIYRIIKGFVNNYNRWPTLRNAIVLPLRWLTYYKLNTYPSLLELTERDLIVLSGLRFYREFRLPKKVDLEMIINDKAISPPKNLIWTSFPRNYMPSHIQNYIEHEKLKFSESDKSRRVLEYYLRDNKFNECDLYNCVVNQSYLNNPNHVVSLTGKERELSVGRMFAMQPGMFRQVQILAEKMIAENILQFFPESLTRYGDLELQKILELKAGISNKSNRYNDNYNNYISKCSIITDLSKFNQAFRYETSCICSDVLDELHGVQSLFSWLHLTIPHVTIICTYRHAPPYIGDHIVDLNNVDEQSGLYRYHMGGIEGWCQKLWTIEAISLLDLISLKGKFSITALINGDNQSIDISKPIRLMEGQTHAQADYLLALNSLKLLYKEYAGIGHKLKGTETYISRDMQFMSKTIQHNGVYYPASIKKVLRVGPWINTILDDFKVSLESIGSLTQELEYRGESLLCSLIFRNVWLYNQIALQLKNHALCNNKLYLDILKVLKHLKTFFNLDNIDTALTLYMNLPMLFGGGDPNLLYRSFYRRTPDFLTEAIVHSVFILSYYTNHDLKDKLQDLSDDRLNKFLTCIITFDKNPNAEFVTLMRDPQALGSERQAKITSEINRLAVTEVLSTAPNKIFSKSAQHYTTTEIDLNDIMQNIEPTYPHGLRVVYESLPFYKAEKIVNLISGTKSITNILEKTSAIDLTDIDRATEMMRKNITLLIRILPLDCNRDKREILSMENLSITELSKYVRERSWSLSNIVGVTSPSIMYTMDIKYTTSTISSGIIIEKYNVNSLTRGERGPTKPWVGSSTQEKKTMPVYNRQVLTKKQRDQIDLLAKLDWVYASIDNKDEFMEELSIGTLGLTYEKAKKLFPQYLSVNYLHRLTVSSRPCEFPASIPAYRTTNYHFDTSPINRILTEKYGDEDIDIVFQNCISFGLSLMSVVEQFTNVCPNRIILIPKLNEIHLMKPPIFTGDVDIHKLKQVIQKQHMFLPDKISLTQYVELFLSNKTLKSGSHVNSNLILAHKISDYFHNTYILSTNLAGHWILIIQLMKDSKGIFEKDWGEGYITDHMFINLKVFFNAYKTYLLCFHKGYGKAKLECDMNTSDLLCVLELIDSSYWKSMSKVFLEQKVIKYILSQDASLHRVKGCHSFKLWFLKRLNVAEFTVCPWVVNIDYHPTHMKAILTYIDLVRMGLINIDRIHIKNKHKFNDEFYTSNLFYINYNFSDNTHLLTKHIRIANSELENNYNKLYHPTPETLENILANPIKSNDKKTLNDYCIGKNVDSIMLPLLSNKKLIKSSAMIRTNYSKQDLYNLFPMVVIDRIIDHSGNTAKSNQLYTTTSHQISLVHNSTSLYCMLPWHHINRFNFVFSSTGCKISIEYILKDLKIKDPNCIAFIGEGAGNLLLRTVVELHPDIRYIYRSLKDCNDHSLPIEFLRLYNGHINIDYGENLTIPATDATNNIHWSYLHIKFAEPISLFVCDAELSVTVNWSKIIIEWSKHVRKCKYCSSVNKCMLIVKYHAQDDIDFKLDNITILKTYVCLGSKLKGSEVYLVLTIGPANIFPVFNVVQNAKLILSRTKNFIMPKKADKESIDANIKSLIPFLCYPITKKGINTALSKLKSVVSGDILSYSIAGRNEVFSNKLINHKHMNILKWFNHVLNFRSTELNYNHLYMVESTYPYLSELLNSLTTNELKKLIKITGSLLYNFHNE
Sequence of recombinant RSV complex (P03421 whole entry, further chain): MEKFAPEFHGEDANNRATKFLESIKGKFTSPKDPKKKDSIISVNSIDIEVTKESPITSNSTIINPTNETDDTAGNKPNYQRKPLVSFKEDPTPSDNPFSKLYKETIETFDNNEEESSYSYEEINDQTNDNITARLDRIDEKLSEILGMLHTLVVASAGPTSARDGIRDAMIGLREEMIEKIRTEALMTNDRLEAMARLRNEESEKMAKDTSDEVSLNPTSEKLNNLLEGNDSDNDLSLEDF

What is called CC50 is the concentration giving 50% cytotoxicity. In general, IC50 refers to the midpoint of a concentration-inhibition curve. In turn, `COCC(C)(NC(C)=O)c1cc(-c2ccc(F)c(Cl)c2)nc(C(O)(CNC(=O)c2ccc(OC3CC3)c(OC)c2)C(F)(F)F)c1` (stereo not drawn) [Compound 537] had a cytotoxic concentration (CC50) at 5 days in data set [1] of 10 to 100 µM. In data set [2] (setting [4]), the EC50 is below 1 µM. Besides, in data set [3], the IC50 was below 1 µM.
`COc1cc(C(=O)NCC(O)(c2cc3c(c(-c4ccc(F)c(Cl)c4)n2)OCC3(C)C)C(F)(F)F)ccc1CN1CCNC1=O` (stereo not drawn) [Compound 216] showed a CC50 at 5 days in data set [1] of 10 to 100 µM. For the same molecule, in data set [2] (setting [4]), the EC50 was 1 to 50 µM. In addition, in data set [3], the concentration for half-maximal inhibition (IC50) was below 10 µM.
Turning to `CC(C)(N)c1cc(-c2ccc(F)c(Cl)c2)nc(C(O)(CNC(=O)c2cscn2)C(F)(F)F)c1` (stereo not drawn) [Compound 277], the half-maximal cytotoxic concentration (CC50) at 5 days in data set [1] fell in the range of 10 to 100 µM. The EC50 in data set [2] (setting [4]) was in the range of 1 to 50 µM. Besides, the 50% inhibitory concentration (IC50) in data set [3] was below 10 µM.
For `COc1ccc(C(=O)NCC(OC)c2cccc(-c3csc4c(F)cccc34)n2)cc1OC` (stereo not drawn) [Compound 148], in that order: 10 to 100 µM, 1 to 50 µM and below 10 µM.
In the case of `COc1cc(C(=O)NCC(C)(O)c2cc3cc[nH]c3c(-c3ccc(F)c(Cl)c3)n2)ccc1OCCF` (stereo not drawn) [Compound 290], the CC50 at 5 days in data set [1] fell in the range of 10 to 100 µM. The EC50 in data set [2] (setting [5]) was 1 to 50 µM. For the same molecule, the half-maximal inhibitory concentration (IC50) in data set [3] was below 10 µM.
`CC(C)(N)c1cc(-c2ccc(F)cc2)nc(C(O)(CNC(=O)c2ccc3c(c2)CNC(=O)N3)C(F)(F)F)c1` (stereo not drawn) [Compound 639] came in with a CC50 at 5 days in data set [1] of 10 to 100 µM. Further, the EC50 in data set [2] (setting [4]) is 1 to 50 µM. Further, the IC50 in data set [3] was below 1 µM.
As to `COc1cc(C(=O)NCC(O)(CN2CCNCC2=O)c2ccc(OC)c(-c3ccc(F)c(Cl)c3)n2)ccc1OCCO` (stereo not drawn) [Compound 196], in data set [1], the cytotoxic concentration (CC50) at 5 days was above 100 µM. Besides, the EC50 in data set [2] (setting [4]) fell in the range of 1 to 50 µM. Moreover, the half-maximal inhibitory concentration (IC50) in data set [3] was below 1 µM.
In data set [1], `COc1cc(C(=O)NCC(O)(c2cc(C(C)(C)NC(C)=O)cc(-c3ccc(F)cc3)n2)C(F)(F)F)ccc1OC[C@@H](C)O` (stereo partly drawn) [Compound 620] came in with a 50% cytotoxic concentration (CC50) at 5 days above 100 µM. For the same molecule, the EC50 in data set [2] (setting [5]) was below 1 µM. Also, in data set [3], the IC50 was below 1 µM.
On to `Cc1nc(C(=O)NCC(O)(c2cc(C(C)(C)N)cc(-c3ccc(F)c(Cl)c3)n2)C(F)(F)F)cs1` (stereo not drawn) [Compound 279], for which the CC50 at 5 days in data set [1] was in the range of 10 to 100 µM. Also, in data set [2] (setting [4]), the EC50 was in the range of 1 to 50 µM. For the same molecule, in data set [3], the IC50 is below 1 µM.
Molecule `COc1cc(C(=O)NCC(O)(CN2CCNCC2)c2ccc(OC)c(-c3ccc(F)c(Cl)c3)n2)ccc1OCCO` (stereo not drawn) [Compound 190] had a 50% cytotoxic concentration (CC50) at 5 days in data set [1] above 100 µM. Also, the EC50 in data set [2] (setting [5]) was 1 to 50 µM. Besides, the half-maximal inhibitory concentration (IC50) in data set [3] was below 1 µM.
On to `COc1ccc(C(=O)NCC(C)(O)c2ccc(OC)c(-c3ccc(F)c(Cl)c3)n2)cc1` (stereo not drawn) [Compound 174], for which the CC50 at 5 days in data set [1] was in the range of 10 to 100 µM. Further, in data set [2] (setting [4]), the EC50 was 1 to 50 µM. Further, the half-maximal inhibitory concentration (IC50) in data set [3] was below 10 µM.
`COc1cc(C(=O)NCC(O)(c2ccc(OC)c(-c3ccc(F)c(Cl)c3)n2)C(F)(F)F)ccc1OC1CCCC1` (stereo not drawn) [Compound 236] displayed a CC50 at 5 days in data set [1] above 100 µM. Further, in data set [2] (setting [4]), the EC50 was in the range of 1 to 50 µM. Besides, the concentration for half-maximal inhibition (IC50) in data set [3] was below 1 µM.
With `COc1cc(C(=O)NCC(O)(c2cc3c(c(-c4ccc(F)nc4)n2)OCC3(C)N)C(F)(F)F)ccc1OCCO` (stereo not drawn) [Compound 492], the CC50 at 5 days in data set [1] was above 100 µM. Moreover, the EC50 in data set [2] (setting [4]) was 1 to 50 µM. Besides, the IC50 in data set [3] is below 10 µM.
Molecule `COc1cc(C(=O)NCC(O)(c2cc3c(c(-c4ccc(F)c(C(C)F)c4)n2)OCCC3(C)C)C2CC2)ccc1OCCO` (stereo not drawn) [Compound 299] came in with a CC50 at 5 days in data set [1] of 10 to 100 µM. Besides, the EC50 in data set [2] (setting [4]) was below 1 µM. For the same molecule, in data set [3], the half-inhibitory concentration (IC50) is below 1 µM.
In turn, `COc1cc(C(=O)NCC(O)c2ccc3c(n2)-c2c(sc4c(F)cccc24)CO3)ccc1OCCO` (stereo not drawn) [Compound 161] displayed a cytotoxic concentration (CC50) at 5 days in data set [1] of 10 to 100 µM. In addition, the EC50 in data set [2] (setting [4]) is 1 to 50 µM. Besides, the IC50 in data set [3] was below 100 µM.
`COc1cc(C(=O)NCC(O)(CO)c2ccc(OC)c(-c3ccc(F)c(Cl)c3)n2)ccc1OC1CC1(F)F` (stereo not drawn) [Compound 469] registered a cytotoxic concentration (CC50) at 5 days in data set [1] of 10 to 100 µM. In addition, the EC50 in data set [2] (setting [4]) is below 1 µM. Besides, the 50% inhibitory concentration (IC50) in data set [3] was below 1 µM.
Molecule `COc1cc(C(=O)NCC(C)(O)c2cc3c(c(-c4ccc(F)c(Cl)c4)n2)NCC3)ccc1OCCF` (single isomer, unassigned) [Compound 294] had a cytotoxic concentration (CC50) at 5 days in data set [1] above 100 µM. Moreover, the EC50 in data set [2] (setting [4]) was below 1 µM. The IC50 in data set [3] was below 10 µM.
For `COc1cc(C(=O)NCC(C)(O)c2cc3c(c(-c4ccc(F)c(Cl)c4)n2)OCC3(C)C)ccc1OCCF` (stereo not drawn) [Compound 227], in that order: 10 to 100 µM, below 1 µM and below 1 µM.
For `COc1cc(C(=O)NCC(O)(c2cc(C(C)(C)N)cc(-c3ccc(F)cc3)n2)C(F)(F)F)ccc1-c1ccncc1` (stereo not drawn) [Compound 599], in that order: 10 to 100 µM, below 1 µM and below 1 µM.
On to `CCc1cc(-c2ccc(F)c(Cl)c2)nc(C(C)(O)CNC(=O)c2ccc(OCC(F)F)c(OC)c2)c1` (stereo not drawn) [Compound 440], for which, in data set [1], the CC50 at 5 days was in the range of 10 to 100 µM. For the same molecule, the EC50 in data set [2] (setting [5]) is 1 to 50 µM. Moreover, the IC50 in data set [3] is below 1 µM.
As to `COc1cc(C(=O)NCC(O)(c2cc3c(c(-c4ccc(F)cc4)n2)OCC3(C)N)C(F)(F)F)ccc1OC1CC(O)C1` (stereo not drawn) [Compound 597], the half-maximal cytotoxic concentration (CC50) at 5 days in data set [1] fell in the range of 10 to 100 µM. In addition, the EC50 in data set [2] (setting [4]) was below 1 µM. Besides, the IC50 in data set [3] was below 10 µM.
As to `COc1cc(C(=O)NC[C@@](O)(c2cc3c(c(-c4ccc(F)cc4)n2)OC[C@]3(C)N)C(F)(F)F)ccc1OC[C@@H](C)O` [Compound 629], in data set [1], the cytotoxic concentration (CC50) at 5 days fell in the range of 10 to 100 µM. Further, the EC50 in data set [2] (setting [4]) is below 1 µM. Also, the IC50 in data set [3] is below 1 µM.
Turning to `COc1ccc(C(O)(CNC(=O)c2ccc3[nH]cnc3c2)C(F)(F)F)nc1-c1ccc(F)c(Cl)c1` (stereo not drawn) [Compound 253], the CC50 at 5 days in data set [1] was 10 to 100 µM. In addition, the EC50 in data set [2] (setting [4]) was in the range of 1 to 50 µM. Also, in data set [3], the IC50 is below 10 µM.
For `Cc1ncc(C(=O)NCC(O)(c2cc(C(C)(C)N)cc(-c3ccc(F)cc3)n2)C(F)(F)F)o1` (stereo not drawn) [Compound 608], in that order: above 100 µM, 1 to 50 µM and below 10 µM.
For the molecule `COc1cc(C(=O)NCC(C)(C)c2ccc(OC)c(-c3ccc(F)c(Cl)c3)n2)ccc1OCCO` [Compound 368], the CC50 at 5 days in data set [1] fell in the range of 10 to 100 µM. In data set [2] (setting [4]), the EC50 was below 1 µM. Further, the half-maximal inhibitory concentration (IC50) in data set [3] was below 100 µM.
For `COc1cc(C(=O)NCC(O)(c2cc3c(c(-c4ccc(F)c(Cl)c4)n2)OCC3(C)C)C(F)(F)F)cc2ccc(C#N)nc12` (stereo not drawn) [Compound 215], in that order: 10 to 100 µM, 1 to 50 µM and below 1 µM.
The matching figures for `COc1cc(C(=O)NCC(O)(c2cn(C)nn2)c2ccc(OC)c(-c3ccc(F)c(Cl)c3)n2)ccc1OCCO` (stereo not drawn) [Compound 199]: above 100 µM, below 1 µM and below 1 µM.
The molecule `COc1cc(C(=O)NCC(=O)c2cc3c(c(-c4ccc(F)c(Cl)c4)n2)OCC3(C)O)ccc1OC1CC1` (stereo not drawn) [Compound 473] registered a CC50 at 5 days in data set [1] of 10 to 100 µM. Also, the EC50 in data set [2] (setting [4]) was below 1 µM. The half-maximal inhibitory concentration (IC50) in data set [3] was below 1 µM.
With `COc1cc(C(=O)NCC(O)(c2ccc(OC)c(-c3ccc(F)c(Cl)c3)n2)C2CC2)ccc1OC(F)F` (stereo not drawn) [Compound 432], the half-maximal cytotoxic concentration (CC50) at 5 days in data set [1] fell in the range of 10 to 100 µM. Further, the EC50 in data set [2] (setting [4]) fell in the range of 1 to 50 µM. Moreover, in data set [3], the concentration for half-maximal inhibition (IC50) is below 1 µM.
The matching figures for `COc1cc(C(=O)NCC(O)(c2cc(CO)cc(-c3ccc(F)c(Cl)c3)n2)C(F)(F)F)ccc1OC1CC1` (stereo not drawn) [Compound 465]: 10 to 100 µM, below 1 µM and below 1 µM.
